Blood pressure, heart rate and IC50 data for 1 compound are collected here from patent US20160318866A1, “SUBSTITUTED BIPIPERIDINYL DERIVATIVES” (Bayer Pharma Aktiengesellschaft, priority 2013, published 2016).

One data set relates to adult female Wistar rats. Put plainly: Radiotelemetric measurement of blood pressure and heart rate of conscious rats. Particulars: 5 and 15 mg/kg, oral, telemetry over 24 hours. The data set is classed as in vivo, rat. From the text:
A commercially available telemetry system from Data Sciences International DSI, USA, was employed for the measurements on conscious rats described below. The system consists of 3 main components: (1) implantable transmitters (Physiotel® telemetry transmitter), (2) receivers (Physiotel® receiver), which are linked via a multiplexer (DSI Data Exchange Matrix) to a (3) data acquisition computer. The telemetry system makes it possible to continuously record blood pressure, heart rate and body motion of conscious animals in their usual habitat.
The studies were conducted on adult female Wistar rats with a body weight of >200 g. After transmitter implantation, the experimental animals were housed singly in type III Makrolon® cages. They had free access to standard feed and water. The day/night rhythm in the test laboratory was set by changing the illumination of the room.
The telemetry transmitters used (PA-C40, DSI) were surgically implanted under aseptic conditions in the experimental animals at least 14 days before the first experimental use.
For the implantation, the fasted animals were anaesthetized with isoflurane (IsoFlo®, Abbott, initiation 5%, maintenance 2%) and shaved and disinfected over a large area of their abdomens. […]
Each of the instrumented rats living in the system was assigned a separate receiving antenna (RPC-1 Receiver, DSI). […] The signals emitted were detected online by a data acquisition system (Dataquest™ A.R.T. for Windows, DSI) and processed accordingly.
In the standard procedure, the following were measured for 10-second periods in each case: (1) systolic blood pressure (SBP), (2) diastolic blood pressure (DBP), (3) mean arterial pressure (MAP), (4) heart rate (HR) and (5) activity (ACT). These parameters were measured over 24 hours after administration.
The acquisition of measurements was repeated under computer control at 5-minute intervals. The source data obtained as absolute values were corrected in the diagram with the currently measured barometric pressure (Ambient Pressure Reference Monitor, APR-1, DSI). […]

For the next data set, the target named is T1, human α2C receptor (Homo sapiens, UniProt P18825).
T1 construct: expressed in transfected cells; host or cells: CHO cells, also recombinantly expressing chimeric G protein Gαqi3 and mitochondrial obelin (mtOb)
T1 sequence (P18825 1-462): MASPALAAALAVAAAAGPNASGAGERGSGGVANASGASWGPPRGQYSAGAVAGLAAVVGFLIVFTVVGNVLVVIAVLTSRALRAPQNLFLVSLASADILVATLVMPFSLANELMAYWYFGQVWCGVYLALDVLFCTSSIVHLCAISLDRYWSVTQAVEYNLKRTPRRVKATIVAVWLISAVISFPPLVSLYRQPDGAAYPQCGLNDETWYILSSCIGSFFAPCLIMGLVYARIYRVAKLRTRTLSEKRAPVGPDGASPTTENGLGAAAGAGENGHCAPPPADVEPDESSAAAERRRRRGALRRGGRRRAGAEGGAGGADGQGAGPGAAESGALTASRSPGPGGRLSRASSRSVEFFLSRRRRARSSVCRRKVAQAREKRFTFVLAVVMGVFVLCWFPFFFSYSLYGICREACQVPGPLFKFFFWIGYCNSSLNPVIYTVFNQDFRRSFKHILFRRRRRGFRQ
Description: Antagonism against the adrenoreceptor α2C (luminescence, recombinant CHO cell line). To be noted: antagonism against adrenoreceptor α2C; noradrenaline 20 nM; tested up to 10 μM; read-out: IC50. Type of data set: cell-based. The gist of the method:
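CHO cells expressing human α2C receptor with chimeric Gαqi3 and mitochondrial obelin, loaded with 2.5 μg/ml coelenterazine for one day at 30 °C.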

By IC50 is commonly meant the midpoint of a concentration-inhibition curve. Turning to `CC1CCCN(C2CCN(C(=O)c3ccc(C(C)(C)O)cc3)CC2)C1` (single isomer, unassigned) [Example 8, [4-(1-Hydroxy-1-methylethyl)phenyl)](3-methyl-1,4′-bipiperidin-1′-yl)methanone, (−)-enantiomer], in the data set with adult female Wistar rats, the blood pressure result is listed as “without any effect on blood pressure” and the heart rate entry is listed as “slight transient increase of the heart rate”. The half-inhibitory concentration (IC50) at human α2C receptor turned out to be 163 nM.
